One data set has as its target T1, SIRT1 (Homo sapiens, UniProt Q96EB6).
T1 construct: purchased Cayman Chemical
T1 sequence (Q96EB6 1-747): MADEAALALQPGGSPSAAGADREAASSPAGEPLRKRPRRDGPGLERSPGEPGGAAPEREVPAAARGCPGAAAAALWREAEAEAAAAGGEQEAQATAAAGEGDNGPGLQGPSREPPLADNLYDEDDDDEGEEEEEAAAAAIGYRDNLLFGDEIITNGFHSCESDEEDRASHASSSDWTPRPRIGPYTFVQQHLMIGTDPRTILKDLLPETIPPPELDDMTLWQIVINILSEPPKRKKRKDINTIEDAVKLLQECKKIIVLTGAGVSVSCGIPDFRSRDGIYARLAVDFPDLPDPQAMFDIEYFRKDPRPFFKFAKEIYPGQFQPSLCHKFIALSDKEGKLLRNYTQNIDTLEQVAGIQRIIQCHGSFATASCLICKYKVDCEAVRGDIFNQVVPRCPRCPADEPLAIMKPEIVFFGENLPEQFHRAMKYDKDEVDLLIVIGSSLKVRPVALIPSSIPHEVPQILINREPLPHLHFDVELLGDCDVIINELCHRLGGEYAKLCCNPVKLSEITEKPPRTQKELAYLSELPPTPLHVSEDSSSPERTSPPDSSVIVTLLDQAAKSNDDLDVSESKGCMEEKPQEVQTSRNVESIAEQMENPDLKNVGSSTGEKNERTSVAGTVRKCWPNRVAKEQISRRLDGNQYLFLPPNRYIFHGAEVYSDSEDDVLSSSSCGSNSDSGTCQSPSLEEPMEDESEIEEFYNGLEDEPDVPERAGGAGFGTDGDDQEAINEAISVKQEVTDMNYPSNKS
Kind of data set: Sirtuin deacetylase enzyme activity assay (Cayman Chemical), compound screen. To be noted: compound at 50 μM; Z-score of change in fluorescent signal; + increase, − decrease. Format: biochemical. The text has this:
(§1) Sirtuins have been identified as innate viral restriction factors and it has been previously shown that drugs that modulate the activity of these enzymes block the production of multiple viruses in culture (see, e.g., WO 2012/106509). Sirtuins are NAD-dependent enzymes that regulate the activity of target proteins by post-translational modifications and thereby control key cellular events (see, e.g., Haigis and Sinclair (2010) Ann Rev Pathol Mech Dis 5:253-95). SIRT1, SIRT2, SIRT3 and SIRT6 have shown a detectable deacetylase activity in well-established biochemical assays that utilize recombinant SIRT1, SIRT2, SIRT3, and SIRT6 enzymes and fluorophore-conjugated acetyl-peptides. As described in the Examples below, the deacetylase activity of these sirtuins were used as a surrogate to identify compounds having broad-range antiviral activity.
(§2) A publically disclosed, small molecule library consisting of approximately 13,000 compounds was screened using a commercially available (Cayman Chemical) enzyme activity assay. Deacetylase activity of sirtuins SIRT1, SIRT2, SIRT3, and SIRT6 was used as a surrogate to identify compounds with the potential for having broad-range antiviral activity. The compounds were tested at a single concentration (50 μM) in microtiter plates and their activity against the four sirtuins was recorded as a change in fluorescent signal intensity. […] Activation of sirtuin activity generated positive Z-scores and inhibition of sirtuin activity produced negative Z-scores.

A further data set concerns the target T2, SIRT2 (Homo sapiens, UniProt Q8IXJ6).
T2 construct: purchased Cayman Chemical
T2 sequence (Q8IXJ6 1-389): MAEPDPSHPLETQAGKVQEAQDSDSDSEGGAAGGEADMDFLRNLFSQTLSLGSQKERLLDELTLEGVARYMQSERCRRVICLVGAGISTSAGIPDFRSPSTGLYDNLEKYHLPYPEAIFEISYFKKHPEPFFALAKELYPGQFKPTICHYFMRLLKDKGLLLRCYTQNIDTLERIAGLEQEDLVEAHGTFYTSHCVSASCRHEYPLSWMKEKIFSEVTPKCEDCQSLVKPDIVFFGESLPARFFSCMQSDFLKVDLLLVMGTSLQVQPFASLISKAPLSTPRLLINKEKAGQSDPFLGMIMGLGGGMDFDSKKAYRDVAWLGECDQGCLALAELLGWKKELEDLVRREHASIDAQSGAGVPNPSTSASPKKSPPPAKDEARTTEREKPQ
The data set is described as above. Type of data set: biochemical. The settings on record: compound at 50 μM; Z-score of change in fluorescent signal; + increase, − decrease.
Description: as §1, §2

The next data set has as its target T3, SIRT3 (Homo sapiens, UniProt Q9NTG7).
T3 construct: purchased Cayman Chemical
T3 sequence (Q9NTG7 1-399): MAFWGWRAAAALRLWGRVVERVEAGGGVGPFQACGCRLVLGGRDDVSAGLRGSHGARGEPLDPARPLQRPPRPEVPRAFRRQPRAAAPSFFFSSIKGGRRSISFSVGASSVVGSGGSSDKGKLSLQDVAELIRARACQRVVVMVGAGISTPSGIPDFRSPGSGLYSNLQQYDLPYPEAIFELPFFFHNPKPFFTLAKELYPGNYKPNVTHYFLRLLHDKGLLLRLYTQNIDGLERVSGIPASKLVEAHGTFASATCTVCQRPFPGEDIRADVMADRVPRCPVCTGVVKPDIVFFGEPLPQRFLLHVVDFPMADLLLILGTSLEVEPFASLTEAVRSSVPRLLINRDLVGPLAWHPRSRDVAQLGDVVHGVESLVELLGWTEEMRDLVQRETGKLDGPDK
The description is as above. Type of data set: biochemical. The settings on record: compound at 50 μM; Z-score of change in fluorescent signal; + increase, − decrease.
Description: as §1, §2

For a further data set, the target named is T4, SIRT6 (Homo sapiens, UniProt Q8N6T7).
T4 construct: purchased Cayman Chemical
T4 sequence (Q8N6T7 whole entry): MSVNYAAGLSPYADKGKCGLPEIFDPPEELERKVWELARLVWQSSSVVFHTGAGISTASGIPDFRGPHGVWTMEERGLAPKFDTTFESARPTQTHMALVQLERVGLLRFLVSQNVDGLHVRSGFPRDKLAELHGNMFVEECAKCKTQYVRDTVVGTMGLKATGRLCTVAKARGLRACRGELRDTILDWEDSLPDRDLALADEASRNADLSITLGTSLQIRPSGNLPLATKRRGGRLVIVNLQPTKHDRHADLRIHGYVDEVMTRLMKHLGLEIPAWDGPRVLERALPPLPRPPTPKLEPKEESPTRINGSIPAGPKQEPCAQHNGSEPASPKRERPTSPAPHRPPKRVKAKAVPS
Described as above. To be noted: compound at 50 μM; Z-score of change in fluorescent signal; + increase, − decrease. Format: biochemical.
Description: as §1, §2

Data set [1] concerns human cytomegalovirus (HCMV) AD169 strain. Kind of data set: Antiviral activity against HCMV in MRC5 fibroblasts (virus yield, fluorescent focus assay). Type of data set: cell-based. To be noted: Human betaherpesvirus 5, HCMV AD169, 1 infectious unit/cell, treated 2 h after infection, virus in medium at 96 h.
Data set [2] in a line: Tetrazolium-based cell viability assay (cytotoxicity). To be noted: human.

For `COc1ccccc1C(C)C(F)CNc1cnc2ccccc2c1` (stereo not drawn), at SIRT1, the “SIRT1 (change in sirtuin deacetylase activity, Z-score class)” value is given as “+++ (Z-score ≧ 3 = +++)”. The “SIRT2 (change in sirtuin deacetylase activity, Z-score class)” value at SIRT2 is given as “++ (2 ≦ Z-score < 3 = ++)”. For the same compound, the “SIRT3 (change in sirtuin deacetylase activity, Z-score class)” value on SIRT3 is “na (−2 ≦ Z-score < 2 = no activity (na))”. Moreover, at SIRT6, the “SIRT6 (change in sirtuin deacetylase activity, Z-score class)” value was “+++ (Z-score ≧ 3 = +++)”. In data set [1], this compound gave an IC50 of 1.19 µM and an IC90 of 2.24 µM. Besides, the CC50 at 96 h in data set [2] was > 50 µM.
For `COc1cccc(CN2C(=O)c3cccnc3N(C)C2C(F)C(C)c2cnc3ccccc3c2)c1` (stereo not drawn), at SIRT1, the “SIRT1 (change in sirtuin deacetylase activity, Z-score class)” value is on record as “+++ (Z-score ≧ 3 = +++)”. Moreover, the “SIRT2 (change in sirtuin deacetylase activity, Z-score class)” value on SIRT2 was “+++ (Z-score ≧ 3 = +++)”. For the same compound, at SIRT3, the “SIRT3 (change in sirtuin deacetylase activity, Z-score class)” value is “+++ (Z-score ≧ 3 = +++)”. On SIRT6, the “SIRT6 (change in sirtuin deacetylase activity, Z-score class)” value is listed as “+++ (Z-score ≧ 3 = +++)”. Moreover, in data set [1], the IC50 is 1.54 µM and the IC90 came to 15.5 µM. For the same compound, the CC50 at 96 h in data set [2] is 25 to 50 µM.
On to `Cc1ccc(C(C)C(CN2CCN(C)CC2)Oc2cnccn2)cn1` (stereo not drawn), for which the “SIRT1 (change in sirtuin deacetylase activity, Z-score class)” value at SIRT1 was “na (−2 ≦ Z-score < 2 = no activity (na))”. Moreover, the “SIRT2 (change in sirtuin deacetylase activity, Z-score class)” value at SIRT2 is reported as “na (−2 ≦ Z-score < 2 = no activity (na))”. For the same compound, on SIRT3, the “SIRT3 (change in sirtuin deacetylase activity, Z-score class)” value is on record as “na (−2 ≦ Z-score < 2 = no activity (na))”. Moreover, the “SIRT6 (change in sirtuin deacetylase activity, Z-score class)” value on SIRT6 was “+++ (Z-score ≧ 3 = +++)”. In data set [1], this compound registered an IC50 of 30.2 µM and an IC90 of 56 µM. In addition, the half-maximal cytotoxic concentration (CC50) at 96 h in data set [2] is > 50 µM.

For the origin of these results see patent US20150335657A1, “Methods for Modulating Sirtuin Enzymes” (The Trustees of Princeton University, priority 2014, published 2015).
